Assay results taken from ChEMBL document CHEMBL4765284, “Optimization of 5-substituted thiazolyl ureas and 6-substituted imidazopyridines as potential HIV-1 latency reversing agents” (Eur J Med Chem, 2020).
Converted amounts (≈) assume the structure as drawn. Values belong to the compound of their own block, whether it stands above or below them.

Experiments:
[1] = Metabolic stability in mouse liver microsomes assessed as intrinsic clearance at 1 uM measured upto 60 mins by LC-MS anlaysis; format: ADME, Microsome; conditions: read-out: CLH
[2] = tested on: Human immunodeficiency virus 1; assay: Antiviral activity against HIV-1 infected in FlpIn-HEK293 cells assessed as maximal activation of long terminal repeat driven gene expression at 0.25 uM incubated for 48 hrs by luciferase based cellular assay relative to control; format: functional
[3] = Cytotoxicity against human HepG2 cells assessed as growth incubation incubated for 48 hrs by cell titer glo assay; format: cell-based
[4] = biological target: Cyclin-dependent kinase 9 (Homo sapiens) (UniProt P50750); assay: Inhibition of CDK9 (unknown origin) at 0.5 uM
[5] = Aqueous solubility of compound at pH 2 by nephelometry; format: physicochemical
[6] = tested on: Human immunodeficiency virus 1; assay: Antiviral activity against HIV-1 infected in J-Lat 10.6 cells assessed as maximal activation of long terminal repeat driven gene expression incubated for 48 hrs by green fluorescent protein based cellular assay; format: functional, organism-based; conditions: Human immunodeficiency virus 1, J-Lat 10.6, 48 h
[7] = tested on: Cytomegalovirus; assay: Antiviral activity against CMV infected in FlpIn-HEK293 cells assessed as click beetle green reporter driven gene expression incubated for 72 hrs by luciferase based cellular assay; format: functional, organism-based; conditions: HEK293, 72 h
[8] = tested on: Human immunodeficiency virus 1; assay: Antiviral activity against HIV-1 infected in FlpIn-HEK293 cells assessed as activation of long terminal repeat driven gene expression incubated for 72 hrs by luciferase based cellular assay; format: functional, organism-based; conditions: Human immunodeficiency virus 1, HEK293, 72 h
[9] = Metabolic stability in mouse liver microsomes assessed as half life at 1 uM measured upto 60 mins by LC-MS anlaysis; format: ADME, Microsome
[10] = Aqueous solubility of compound at pH 6.5 by nephelometry; format: physicochemical
[11] = biological target: Cyclin-T2 (Homo sapiens) (UniProt O60583); assay: Inhibition of cyclin T2 (unknown origin) at 0.5 uM
[12] = biological target: Cyclin-T1 (Homo sapiens) (UniProt O60563); assay: Inhibition of cyclin T1 (unknown origin) at 0.5 uM
[13] = tested on: Human immunodeficiency virus 1; assay: Antiviral activity against HIV-1 infected in J-Lat 10.6 cells assessed as maximal activation of long terminal repeat driven gene expression at 1 uM incubated for 48 hrs by green fluorescent protein based cellular assay relative to control; format: functional
[14] = biological target: T1, Cyclin-K (Homo sapiens) (UniProt O75909); assay: Inhibition of cyclin K (unknown origin) at 0.5 uM
T1 sequence (whole entry): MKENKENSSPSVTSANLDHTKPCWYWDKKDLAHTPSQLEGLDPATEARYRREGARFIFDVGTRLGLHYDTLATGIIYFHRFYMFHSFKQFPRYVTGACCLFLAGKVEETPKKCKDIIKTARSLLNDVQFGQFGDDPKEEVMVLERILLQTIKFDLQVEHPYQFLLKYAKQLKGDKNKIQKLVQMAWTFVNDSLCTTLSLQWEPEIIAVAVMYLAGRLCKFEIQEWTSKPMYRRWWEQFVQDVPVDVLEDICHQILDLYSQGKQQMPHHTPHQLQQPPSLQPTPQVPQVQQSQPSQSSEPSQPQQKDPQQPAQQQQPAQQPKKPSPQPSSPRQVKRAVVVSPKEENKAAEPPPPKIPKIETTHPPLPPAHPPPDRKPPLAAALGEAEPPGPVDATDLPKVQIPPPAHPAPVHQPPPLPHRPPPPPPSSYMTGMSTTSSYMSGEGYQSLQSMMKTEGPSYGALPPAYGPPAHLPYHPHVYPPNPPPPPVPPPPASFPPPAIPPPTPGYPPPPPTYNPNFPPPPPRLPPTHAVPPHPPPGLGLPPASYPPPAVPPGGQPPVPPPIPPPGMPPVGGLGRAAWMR

[15] = Metabolic stability in human liver microsomes assessed as half life at 1 uM measured upto 60 mins by LC-MS anlaysis; format: ADME, Microsome
[16] = tested on: Human immunodeficiency virus 1; assay: Antiviral activity against HIV-1 infected in FlpIn-HEK293 cells assessed as maximal activation of long terminal repeat driven gene expression at 0.13 uM incubated for 48 hrs by luciferase based cellular assay relative to control; format: functional
[17] = tested on: Human immunodeficiency virus 1; assay: Antiviral activity against HIV-1 infected in J-Lat 10.6 cells assessed as maximal activation of long terminal repeat driven gene expression at 0.13 uM incubated for 48 hrs by green fluorescent protein based cellular assay relative to control; format: functional
[18] = Metabolic stability in human liver microsomes assessed as intrinsic clearance at 1 uM measured upto 60 mins by LC-MS analysis; format: ADME, Microsome; conditions: read-out: CLH
[19] = tested on: Human immunodeficiency virus 1; assay: Antiviral activity against HIV-1 infected in FlpIn-HEK293 cells assessed as maximal activation of long terminal repeat driven gene expression at 5 uM incubated for 48 hrs by luciferase based cellular assay relative to control; format: functional
[20] = tested on: Human immunodeficiency virus 1; assay: Antiviral activity against HIV-1 infected in J-Lat 10.6 cells assessed as maximal activation of long terminal repeat driven gene expression at 2 uM incubated for 48 hrs by green fluorescent protein based cellular assay relative to control; format: functional
[21] = tested on: Human immunodeficiency virus 1; assay: Antiviral activity against HIV-1 infected in FlpIn-HEK293 cells assessed as maximal activation of long terminal repeat driven gene expression at 0.31 uM incubated for 48 hrs by luciferase based cellular assay relative to control; format: functional
[22] = tested on: Human immunodeficiency virus 1; assay: Antiviral activity against HIV-1 infected in FlpIn-HEK293 cells assessed as maximal activation of long terminal repeat driven gene expression at 1.3 uM incubated for 48 hrs by luciferase based cellular assay relative to control; format: functional
[23] = tested on: Human immunodeficiency virus 1; assay: Antiviral activity against HIV-1 infected in J-Lat 10.6 cells assessed as maximal activation of long terminal repeat driven gene expression at 20 uM incubated for 48 hrs by green fluorescent protein based cellular assay relative to control; format: functional
[24] = tested on: Human immunodeficiency virus 1; assay: Antiviral activity against HIV-1 infected in FlpIn-HEK293 cells assessed as maximal activation of long terminal repeat driven gene expression at 0.09 uM incubated for 48 hrs by luciferase based cellular assay relative to control; format: functional
[25] = tested on: Human immunodeficiency virus 1; assay: Antiviral activity against HIV-1 infected in J-Lat 10.6 cells assessed as maximal activation of long terminal repeat driven gene expression at 0.06 uM incubated for 48 hrs by green fluorescent protein based cellular assay relative to control; format: functional
[26] = tested on: Human immunodeficiency virus 1; assay: Antiviral activity against HIV-1 infected in J-Lat 10.6 cells assessed as maximal activation of long terminal repeat driven gene expression at 0.25 uM incubated for 48 hrs by green fluorescent protein based cellular assay relative to control; format: functional
[27] = tested on: Human immunodeficiency virus 1; assay: Antiviral activity against HIV-1 infected in FlpIn-HEK293 cells assessed as maximal activation of long terminal repeat driven gene expression at 0.16 uM incubated for 48 hrs by luciferase based cellular assay relative to control; format: functional
[28] = tested on: Human immunodeficiency virus 1; assay: Antiviral activity against HIV-1 infected in FlpIn-HEK293 cells assessed as maximal activation of long terminal repeat driven gene expression at 0.63 uM incubated for 48 hrs by luciferase based cellular assay relative to control; format: functional

Cyclin-dependent kinase 9 (Homo sapiens), sequence (P50750 whole entry): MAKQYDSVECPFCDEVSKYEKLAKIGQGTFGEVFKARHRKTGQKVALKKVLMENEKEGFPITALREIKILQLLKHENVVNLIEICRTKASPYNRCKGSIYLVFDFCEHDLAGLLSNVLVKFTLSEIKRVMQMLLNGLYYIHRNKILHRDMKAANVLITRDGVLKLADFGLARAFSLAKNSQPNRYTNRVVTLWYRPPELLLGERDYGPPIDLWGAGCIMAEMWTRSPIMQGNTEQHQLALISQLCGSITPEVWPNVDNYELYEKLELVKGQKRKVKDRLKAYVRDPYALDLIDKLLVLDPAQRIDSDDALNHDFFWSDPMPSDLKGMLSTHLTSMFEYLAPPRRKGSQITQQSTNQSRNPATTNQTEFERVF
Cyclin-T1 (Homo sapiens), sequence (O60563 whole entry): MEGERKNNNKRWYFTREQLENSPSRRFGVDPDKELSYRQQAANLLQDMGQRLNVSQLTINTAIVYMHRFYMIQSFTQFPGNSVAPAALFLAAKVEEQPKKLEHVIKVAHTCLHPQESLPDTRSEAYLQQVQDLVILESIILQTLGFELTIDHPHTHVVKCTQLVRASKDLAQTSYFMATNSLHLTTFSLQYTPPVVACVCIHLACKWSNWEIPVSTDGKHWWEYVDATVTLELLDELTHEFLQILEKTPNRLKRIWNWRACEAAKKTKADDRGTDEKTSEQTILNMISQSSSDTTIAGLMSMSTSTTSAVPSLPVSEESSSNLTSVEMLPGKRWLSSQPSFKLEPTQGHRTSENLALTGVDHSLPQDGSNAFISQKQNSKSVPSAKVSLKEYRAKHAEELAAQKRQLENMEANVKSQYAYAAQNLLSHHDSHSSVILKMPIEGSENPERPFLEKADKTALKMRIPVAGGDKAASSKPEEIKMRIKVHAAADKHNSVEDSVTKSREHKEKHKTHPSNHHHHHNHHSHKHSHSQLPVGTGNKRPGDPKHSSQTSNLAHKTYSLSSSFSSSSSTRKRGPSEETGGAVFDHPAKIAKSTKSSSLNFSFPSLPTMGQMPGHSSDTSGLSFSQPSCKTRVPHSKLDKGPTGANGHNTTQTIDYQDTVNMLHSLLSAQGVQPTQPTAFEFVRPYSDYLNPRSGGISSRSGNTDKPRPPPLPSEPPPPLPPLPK
Cyclin-T2 (Homo sapiens), sequence (O60583 whole entry): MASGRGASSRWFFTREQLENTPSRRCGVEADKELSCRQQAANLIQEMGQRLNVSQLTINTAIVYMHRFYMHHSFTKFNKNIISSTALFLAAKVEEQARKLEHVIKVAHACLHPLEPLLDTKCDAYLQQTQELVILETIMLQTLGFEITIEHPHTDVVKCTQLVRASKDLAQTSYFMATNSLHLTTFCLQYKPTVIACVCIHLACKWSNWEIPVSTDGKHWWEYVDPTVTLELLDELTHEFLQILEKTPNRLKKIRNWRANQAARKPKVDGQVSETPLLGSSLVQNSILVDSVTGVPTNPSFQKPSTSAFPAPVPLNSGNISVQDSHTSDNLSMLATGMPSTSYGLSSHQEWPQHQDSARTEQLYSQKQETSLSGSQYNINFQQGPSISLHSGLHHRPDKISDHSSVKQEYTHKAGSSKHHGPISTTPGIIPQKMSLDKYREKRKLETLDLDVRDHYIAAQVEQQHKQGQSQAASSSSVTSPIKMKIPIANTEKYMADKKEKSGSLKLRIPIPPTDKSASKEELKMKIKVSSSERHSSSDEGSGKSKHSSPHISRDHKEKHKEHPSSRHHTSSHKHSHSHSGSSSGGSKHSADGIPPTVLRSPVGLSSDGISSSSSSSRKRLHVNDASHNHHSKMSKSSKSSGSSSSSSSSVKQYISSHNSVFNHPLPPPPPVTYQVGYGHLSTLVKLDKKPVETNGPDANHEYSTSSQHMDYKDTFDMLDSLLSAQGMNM

SMILES: O=C(Nc1ncc(Cl)s1)N1CCN(c2cnc(Cl)c(Cl)c2)CC1
- half-life at 1 µM [15]: 70 min
- microsomal CLint at 1 µM [1]: 32 µL/min/mg
- CC50 at 48 h [3]: 40 nM
- %max [16]: 65%
- inhibition [4]: 60%
- solubility kinetic [5]: < 1.6 µM
- EC50 [6]: 290 nM
- %max [17]: 26%
- EC50 [7]: 70 nM
- EC50 [8]: 80 nM
- half-life at 1 µM [9]: 55 min
- solubility kinetic [10]: < 1.6 µM
- microsomal CLint at 1 µM [18]: 25 µL/min/mg
- inhibition [11]: 60%
- inhibition [12]: 60%
- inhibition [14]: 60%

SMILES: Cc1ccc(N2CCN(C(=O)Nc3ncc(Cl)s3)CC2=O)cc1Cl
- microsomal CLint at 1 µM [1]: 29 µL/min/mg
- CC50 at 48 h [3]: 42000 nM
- solubility kinetic [5]: 1.6 µM (≈ 0.616 µg/mL)
- EC50 [6]: 2700 nM
- EC50 [7]: 13000 nM
- %max [20]: 38%
- EC50 [8]: 640 nM
- half-life at 1 µM [9]: 60 min
- solubility kinetic [10]: 1.6 µM (≈ 0.616 µg/mL)
- %max [21]: 47%

SMILES: Cc1ccc(OCCCc2nc3cc(Cl)cnc3[nH]2)cc1Cl
- half-life at 1 µM [15]: 5 min
- microsomal CLint at 1 µM [1]: > 866 µL/min/mg
- solubility kinetic [5]: 1.6 µM (≈ 0.538 µg/mL)
- EC50 [7]: 12000 nM
- EC50 [8]: 9400 nM
- half-life at 1 µM [9]: < 2 min
- solubility kinetic [10]: < 1.6 µM
- microsomal CLint at 1 µM [18]: 329 µL/min/mg

SMILES: Cc1cc(OCCCC(=O)Nc2ncc(Cl)s2)ccc1Cl
- %max [22]: 39%
- %max [23]: 15%
- EC50 [6]: 29000 nM

SMILES: Clc1cnc2[nH]c(CCCOc3cnc(Cl)c(Cl)c3)nc2c1
- microsomal CLint at 1 µM [1]: 122 µL/min/mg
- CC50 at 48 h [3]: 1900 nM
- %max [16]: 26%
- solubility kinetic [5]: 12.5 µM (≈ 4.47 µg/mL)
- EC50 [6]: > 4000 nM
- EC50 [7]: 2400 nM
- %max [20]: 11%
- EC50 [8]: 6400 nM
- half-life at 1 µM [9]: 14 min
- solubility kinetic [10]: 1.6 µM (≈ 0.572 µg/mL)

SMILES: Clc1cnc2[nH]c(N3CCN(c4cnc(Cl)c(Cl)c4)CC3)nc2c1
- microsomal CLint at 1 µM [1]: 132 µL/min/mg
- CC50 at 48 h [3]: 40 nM
- %max [24]: 57%
- solubility kinetic [5]: 25 µM (≈ 9.59 µg/mL)
- EC50 [6]: 24000 nM
- EC50 [7]: 27000 nM
- %max [25]: 28%
- EC50 [8]: 80 nM
- half-life at 1 µM [9]: 13 min
- solubility kinetic [10]: 1.6 µM (≈ 0.614 µg/mL)

SMILES: Cc1ccc(NC2CN(C(=O)Nc3ncc(Cl)s3)C2)cc1Cl
- microsomal CLint at 1 µM [1]: 49 µL/min/mg
- %max [2]: 63%
- CC50 at 48 h [3]: 330 nM
- solubility kinetic [5]: 1.6 µM (≈ 0.572 µg/mL)
- EC50 [6]: 1500 nM
- EC50 [7]: 1700 nM
- EC50 [8]: 230 nM
- half-life at 1 µM [9]: 36 min
- solubility kinetic [10]: 1.6 µM (≈ 0.572 µg/mL)
- %max [13]: 31%

SMILES: Cc1cc(NC2CCN(C(=O)Nc3ncc(Cl)s3)C2)ccc1Cl (stereo not drawn)
- microsomal CLint at 1 µM [1]: 151 µL/min/mg
- CC50 at 48 h [3]: 680 nM
- %max [28]: 39%
- solubility kinetic [5]: 6.3 µM (≈ 2.34 µg/mL)
- EC50 [6]: 3000 nM
- EC50 [7]: 1800 nM
- %max [20]: 20%
- EC50 [8]: 790 nM
- half-life at 1 µM [9]: 11 min
- solubility kinetic [10]: 1.6 µM (≈ 0.594 µg/mL)

Second part, led by results:

- microsomal CLint at 1 µM [1]: 53 µL/min/mg
- inhibition [4]: 40%
- solubility kinetic [5]: < 1.6 µM
- EC50 [6]: 1700 nM
- EC50 [7]: 670 nM
- EC50 [8]: 240 nM
- half-life at 1 µM [9]: 33 min
- solubility kinetic [10]: < 1.6 µM
- inhibition [11]: 40%
- inhibition [12]: 40%
- inhibition [14]: 40%
SMILES: Cc1ccc(N2CCN(C(=O)Nc3ncc(Cl)s3)CC2)cc1Cl
- %max [2]: 53%
- CC50 at 48 h [3]: 250 nM
- %max [13]: 23%

- half-life at 1 µM [15]: 151 min
- microsomal CLint at 1 µM [1]: 15 µL/min/mg
- solubility kinetic [5]: < 1.6 µM
- EC50 [6]: 1600 nM
- EC50 [7]: 4400 nM
- EC50 [8]: 350 nM
- half-life at 1 µM [9]: 117 min
- solubility kinetic [10]: < 1.6 µM
- microsomal CLint at 1 µM [18]: 11 µL/min/mg
SMILES: N#Cc1cnc(NC(=O)N2CCN(c3ccc(Cl)c(Cl)c3)CC2)s1
- CC50 at 48 h [3]: 410 nM
- %max [19]: 87%
- %max [13]: 30%

- microsomal CLint at 1 µM [1]: 38 µL/min/mg
- solubility kinetic [5]: < 1.6 µM
- EC50 [6]: 480 nM
- EC50 [7]: 500 nM
- EC50 [8]: 610 nM
- half-life at 1 µM [9]: 46 min
- solubility kinetic [10]: < 1.6 µM
SMILES: N#Cc1cccc(N2CCN(C(=O)Nc3ncc(Cl)s3)CC2)c1
- CC50 at 48 h [3]: 50 nM
- %max [26]: 28%
- %max [21]: 22%

- microsomal CLint at 1 µM [1]: 22 µL/min/mg
- solubility kinetic [5]: < 1.6 µM
- EC50 [6]: 1100 nM
- EC50 [7]: 150 nM
- EC50 [8]: 390 nM
- half-life at 1 µM [9]: 80 min
- solubility kinetic [10]: < 1.6 µM
SMILES: N#Cc1cnc(NC(=O)N2CCN(c3cnc(Cl)c(Cl)c3)CC2)s1
- CC50 at 48 h [3]: 120 nM
- %max [27]: 25%
- %max [26]: 28%
